≈ marks a conversion by molar mass, not a printed value.
How the values were obtained:
MDA-MB-468 = assay: Growth inhibition of human MDA-MB-468 cells at 10 uM relative to control; type: functional; settings: read-out: GI
HCC 2998 = assay: Growth inhibition of human HCC 2998 cells at 10 uM relative to control; type: functional; settings: read-out: GI
TK-10 = assay: Growth inhibition of human TK-10 cells at 10 uM relative to control; type: functional; settings: read-out: GI
M14 = assay: Growth inhibition of human M14 cells at 10 uM relative to control; type: functional; settings: read-out: GI
U-251 = assay: Growth inhibition of human U-251 cells at 10 uM relative to control; type: functional; settings: read-out: GI
ACHN = assay: Growth inhibition of human ACHN cells at 10 uM relative to control; type: functional; settings: read-out: GI
SNB-75 = assay: Growth inhibition of human SNB-75 cells at 10 uM relative to control; type: functional; settings: read-out: GI
MCF7 = assay: Growth inhibition of human MCF7 cells at 10 uM relative to control; type: functional; settings: read-out: GI
HOP-62 = assay: Growth inhibition of human HOP-62 cells at 10 uM relative to control; type: functional; settings: read-out: GI
UO-31 = assay: Growth inhibition of human UO-31 cells at 10 uM relative to control; type: functional; settings: read-out: GI
MDA-MB-435 = assay: Growth inhibition of human MDA-MB-435 cells at 10 uM relative to control; type: functional; settings: read-out: GI
SF-539 = assay: Growth inhibition of human SF-539 cells at 10 uM relative to control; type: functional; settings: read-out: GI
NCI-H226 = assay: Growth inhibition of human NCI-H226 cells at 10 uM relative to control; type: functional; settings: read-out: GI
MDA-MB-231 = assay: Growth inhibition of human MDA-MB-231 cells at 10 uM relative to control; type: functional; settings: read-out: GI
SNB-19 = assay: Growth inhibition of human SNB-19 cells at 10 uM relative to control; type: functional; settings: read-out: GI
HCT-116 = assay: Growth inhibition of human HCT-116 cells at 10 uM relative to control; type: functional; settings: read-out: GI
CCRF-CEM = assay: Growth inhibition of human CCRF-CEM cells at 10 uM relative to control; type: functional; settings: read-out: GI
COLO 205 = assay: Growth inhibition of human COLO 205 cells at 10 uM relative to control; type: functional; settings: read-out: GI
NCI-H460 = assay: Growth inhibition of human NCI-H460 cells at 10 uM relative to control; type: functional; settings: read-out: GI
OVCAR-4 = assay: Growth inhibition of human OVCAR-4 cells at 10 uM relative to control; type: functional; settings: read-out: GI
RPMI-8226 = assay: Growth inhibition of human RPMI-8226 cells at 10 uM relative to control; type: functional; settings: read-out: GI
OVCAR-5 = assay: Growth inhibition of human OVCAR-5 cells at 10 uM relative to control; type: functional; settings: read-out: GI
NCI-H23 = assay: Growth inhibition of human NCI-H23 cells at 10 uM relative to control; type: functional; settings: read-out: GI
SN12C = assay: Growth inhibition of human SN12C cells at 10 uM relative to control; type: functional; settings: read-out: GI
KM12 = assay: Growth inhibition of human KM12 cells at 10 uM relative to control; type: functional; settings: read-out: GI
NCI/ADR-RES = assay: Growth inhibition of human NCI/ADR-RES cells at 10 uM relative to control; type: functional; settings: read-out: GI
SK-MEL-28 = assay: Growth inhibition of human SK-MEL-28 cells at 10 uM relative to control; type: functional; settings: read-out: GI
T47D = assay: Growth inhibition of human T47D cells at 10 uM relative to control; type: functional; settings: read-out: GI
K562 = assay: Growth inhibition of human K562 cells at 10 uM relative to control; type: functional; settings: read-out: GI
UACC-257 = assay: Growth inhibition of human UACC-257 cells at 10 uM relative to control; type: functional; settings: read-out: GI
BT-549 = assay: Growth inhibition of human BT-549 cells at 10 uM relative to control; type: functional; settings: read-out: GI
UACC-62 = assay: Growth inhibition of human UACC-62 cells at 10 uM relative to control; type: functional; settings: read-out: GI
A549 = assay: Growth inhibition of human A549 cells at 10 uM relative to control; type: functional; settings: read-out: GI
SW-620 = assay: Growth inhibition of human SW-620 cells at 10 uM relative to control; type: functional; settings: read-out: GI
SF-295 = assay: Growth inhibition of human SF-295 cells at 10 uM relative to control; type: functional; settings: read-out: GI
SK-MEL-5 = assay: Growth inhibition of human SK-MEL-5 cells at 10 uM relative to control; type: functional; settings: read-out: GI
RXF 393 = assay: Growth inhibition of human RXF 393 cells at 10 uM relative to control; type: functional; settings: read-out: GI
SR = assay: Growth inhibition of human SR cells at 10 uM relative to control; type: functional; settings: read-out: GI
NCI-H522 = assay: Growth inhibition of human NCI-H522 cells at 10 uM relative to control; type: functional; settings: read-out: GI
LOX IMVI = assay: Growth inhibition of human LOX IMVI cells at 10 uM relative to control; type: functional; settings: read-out: GI
SF-268 = assay: Growth inhibition of human SF-268 cells at 10 uM relative to control; type: functional; settings: read-out: GI
HL-60(TB) = assay: Growth inhibition of human HL-60(TB) cells at 10 uM relative to control; type: functional; settings: read-out: GI
786-0 = assay: Growth inhibition of human 786-0 cells at 10 uM relative to control; type: functional; settings: read-out: GI
IGROV-1 = assay: Growth inhibition of human IGROV-1 cells at 10 uM relative to control; type: functional; settings: read-out: GI
PC-3 = assay: Growth inhibition of human PC-3 cells at 10 uM relative to control; type: functional; settings: read-out: GI
CAKI-1 = assay: Growth inhibition of human CAKI-1 cells at 10 uM relative to control; type: functional; settings: read-out: GI
Malme-3M = assay: Growth inhibition of human Malme-3M cells at 10 uM relative to control; type: functional; settings: read-out: GI
A498 = assay: Growth inhibition of human A498 cells at 10 uM relative to control; type: functional; settings: read-out: GI
DU-145 = assay: Growth inhibition of human DU-145 cells at 10 uM relative to control; type: functional; settings: read-out: GI
HT-29 = assay: Growth inhibition of human HT-29 cells at 10 uM relative to control; type: functional; settings: read-out: GI
OVCAR-8 = assay: Growth inhibition of human OVCAR-8 cells at 10 uM relative to control; type: functional; settings: read-out: GI
DNA = assay: Displacement of methyl green from DNA (unknown origin) assessed as DNA intercalation after 24 hrs by colorimetric assay; type: nucleic-acid assay
Hs-578T = assay: Growth inhibition of human Hs-578T cells at 10 uM relative to control; type: functional; settings: read-out: GI
NCI-H322M = assay: Growth inhibition of human NCI-H322M cells at 10 uM relative to control; type: functional; settings: read-out: GI
SK-MEL-2 = assay: Growth inhibition of human SK-MEL-2 cells at 10 uM relative to control; type: functional; settings: read-out: GI
HCT-15 = assay: Growth inhibition of human HCT-15 cells at 10 uM relative to control; type: functional; settings: read-out: GI
SK-OV-3 = assay: Growth inhibition of human SK-OV-3 cells at 10 uM relative to control; type: functional; settings: read-out: GI
HOP-92 = assay: Growth inhibition of human HOP-92 cells at 10 uM relative to control; type: functional; settings: read-out: GI
MOLT-4 = assay: Growth inhibition of human MOLT-4 cells at 10 uM relative to control; type: functional; settings: read-out: GI

CCOC(=O)C1=CSC2=NC(/C=C/c3cc(OC)c(OC)c(OC)c3)=CC(c3cc(OC)c(OC)c(OC)c3)N12 (centres undefined)
inhibition of growth at 10 µM (MDA-MB-468): < 10% | inhibition of growth at 10 µM (HCC 2998): < 10% | inhibition of growth at 10 µM (TK-10): < 10% | inhibition of growth at 10 µM (M14): < 10% | inhibition of growth at 10 µM (U-251): < 10% | inhibition of growth at 10 µM (ACHN): < 10% | inhibition of growth at 10 µM (SNB-75): 18.4% | inhibition of growth at 10 µM (MCF7): 28.9% | inhibition of growth at 10 µM (HOP-62): < 10% | inhibition of growth at 10 µM (UO-31): 13.7% | inhibition of growth at 10 µM (MDA-MB-435): < 10% | inhibition of growth at 10 µM (SF-539): < 10% | inhibition of growth at 10 µM (NCI-H226): < 10% | inhibition of growth at 10 µM (MDA-MB-231): 14.5% | inhibition of growth at 10 µM (SNB-19): < 10% | inhibition of growth at 10 µM (HCT-116): 44.4% | inhibition of growth at 10 µM (CCRF-CEM): 69.3% | inhibition of growth at 10 µM (COLO 205): < 10% | inhibition of growth at 10 µM (NCI-H460): < 10% | inhibition of growth at 10 µM (OVCAR-4): 12.5% | inhibition of growth at 10 µM (RPMI-8226): 18% | inhibition of growth at 10 µM (OVCAR-5): < 10% | inhibition of growth at 10 µM (NCI-H23): < 10% | inhibition of growth at 10 µM (SN12C): < 10% | inhibition of growth at 10 µM (KM12): 22.7% | inhibition of growth at 10 µM (NCI/ADR-RES): < 10% | inhibition of growth at 10 µM (SK-MEL-28): < 10% | inhibition of growth at 10 µM (T47D): < 10% | inhibition of growth at 10 µM (K562): 35.7% | inhibition of growth at 10 µM (UACC-257): 17.2% | inhibition of growth at 10 µM (BT-549): < 10% | inhibition of growth at 10 µM (UACC-62): 18% | inhibition of growth at 10 µM (A549): < 10% | inhibition of growth at 10 µM (SW-620): 13.4% | inhibition of growth at 10 µM (SF-295): < 10% | inhibition of growth at 10 µM (SK-MEL-5): 12% | inhibition of growth at 10 µM (RXF 393): < 10% | inhibition of growth at 10 µM (SR): 59% | inhibition of growth at 10 µM (NCI-H522): 47.8% | inhibition of growth at 10 µM (LOX IMVI): 29.7% | inhibition of growth at 10 µM (SF-268): < 10% | inhibition of growth at 10 µM (HL-60(TB)): < 10% | inhibition of growth at 10 µM (786-0): < 10% | inhibition of growth at 10 µM (IGROV-1): < 10% | inhibition of growth at 10 µM (PC-3): 21.1% | inhibition of growth at 10 µM (CAKI-1): < 10% | inhibition of growth at 10 µM (Malme-3M): < 10% | inhibition of growth at 10 µM (A498): < 10% | inhibition of growth at 10 µM (DU-145): < 10% | inhibition of growth at 10 µM (HT-29): 13% | inhibition of growth at 10 µM (OVCAR-8): 32% | IC50 (DNA): 43.92 µg/mL (≈ 77.2 µM) | inhibition of growth at 10 µM (Hs-578T): < 10% | inhibition of growth at 10 µM (NCI-H322M): < 10% | inhibition of growth at 10 µM (SK-MEL-2): < 10% | inhibition of growth at 10 µM (HCT-15): 35% | inhibition of growth at 10 µM (SK-OV-3): < 10% | inhibition of growth at 10 µM (HOP-92): < 10% | inhibition of growth at 10 µM (MOLT-4): 25.1%

— ChEMBL document CHEMBL4665869, “New thiazolopyrimidine as anticancer agents: Synthesis, biological evaluation, DNA binding, molecular modeling and ADMET study” (Bioorg Med Chem Lett, 2020)
